Assay results taken from PubChem BioAssay AID248 (DTP/NCI, 2004).
Several values for one entry are separate records, joined by “and”; a condition that tells them apart may be missing. Equal entries are not always repeated. Inconclusive results and toxic doses are left out.

Test system: L1210 leukemia ip in BDF1 mice, survival T/C
Experiment: NCI In Vivo Anticancer Drug Screen. Data for tumor model L1210 Leukemia (intraperitoneal) in B6D2F1 (BDF1) mice
Details: endpoint: mean survival time, higher = longer survival
Summary of the method: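 Ratio derived from survival: compound-dosed mice over vehicle-dosed mice, all bearing a transplantable tumor.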

[1] = dose: 50.0 mg/kg/injection, schedule: Q01DX009 (ip), vehicle: saline
[2] = dose: 100.0 mg/kg/injection, schedule: Q01DX009 (ip), vehicle: saline
[3] = dose: 100.0 mg/kg/injection, schedule: Q04DX003 (ip), vehicle: saline
[4] = dose: 200.0 mg/kg/injection, schedule: Q01DX009 (ip), vehicle: saline
[5] = dose: 200.0 mg/kg/injection, schedule: Q04DX003 (ip), vehicle: saline
[6] = dose: 50.0 mg/kg/injection, schedule: Q04DX002 (ip), vehicle: saline with Tween-80
[7] = dose: 100.0 mg/kg/injection, schedule: Q04DX002 (ip), vehicle: saline with Tween-80
[8] = dose: 100.0 mg/kg/injection, schedule: Q01DX009 (ip), vehicle: Klucel (hydroxypropylcellulose) (HPC)
[9] = dose: 200.0 mg/kg/injection, schedule: Q01DX009 (ip), vehicle: Klucel (hydroxypropylcellulose) (HPC)
[10] = dose: 400.0 mg/kg/injection, schedule: Q01DX009 (ip), vehicle: Klucel (hydroxypropylcellulose) (HPC)
[11] = dose: 25.0 mg/kg/injection, schedule: Q01DX009 (ip), vehicle: saline
[12] = dose: 100.0 mg/kg/injection, schedule: Q01DX001 (ip), vehicle: saline with Tween-80
[13] = dose: 400.0 mg/kg/injection, schedule: Q04DX002 (ip), vehicle: saline with Tween-80
[14] = dose: 50.0 mg/kg/injection, schedule: Q04DX003 (ip), vehicle: saline

CC1NCCC1CO (stereo unspecified)
T/C [1]: 104 % of control
T/C [2]: 97 % of control
T/C [3]: 96 % of control
T/C [4]: 94 % of control
T/C [5]: 104 % of control

CCN(CC)c1ccc(N(C(C)=O)C(C)=O)cc1
T/C (dose: 6.25 mg/kg/injection, schedule: Q01DX009 (ip), vehicle: saline with Tween-80): 98 % of control
T/C (dose: 12.5 mg/kg/injection, schedule: Q01DX009 (ip), vehicle: saline with Tween-80): 96 % of control
T/C (dose: 25.0 mg/kg/injection, schedule: Q01DX009 (ip), vehicle: saline with Tween-80): 96 % of control

CCCCN(CCCC)C(=N)C(=N)N(CCCC)CCCC
T/C [6]: 100 % of control
T/C [7]: 100 % of control

COc1cc2c(cc1OC(C)=O)C=CCCC2=O
T/C (dose: 100.0 mg/kg/injection, schedule: Q01DX009 (ip), vehicle: other): 97 % of control
T/C (dose: 100.0 mg/kg/injection, schedule: Q04DX003 (ip), vehicle: other): 105 % of control
T/C (dose: 200.0 mg/kg/injection, schedule: Q01DX009 (ip), vehicle: other): 90 % of control
T/C (dose: 200.0 mg/kg/injection, schedule: Q04DX003 (ip), vehicle: other): 105 % of control
T/C (dose: 400.0 mg/kg/injection, schedule: Q01DX009 (ip), vehicle: other): 97 % of control
T/C (dose: 400.0 mg/kg/injection, schedule: Q04DX003 (ip), vehicle: other): 104 % of control

C=CCOC(=O)Nc1ccccc1
T/C (dose: 100.0 mg/kg/injection, schedule: Q01DX001 (ip), vehicle: Klucel (hydroxypropylcellulose) (HPC)): 92 % of control and 90 % of control
T/C [8]: 106 % of control
T/C (dose: 200.0 mg/kg/injection, schedule: Q01DX001 (ip), vehicle: Klucel (hydroxypropylcellulose) (HPC)): 93 % of control and 94 % of control
T/C [9]: 95 % of control
T/C (dose: 300.0 mg/kg/injection, schedule: Q01DX001 (ip), vehicle: Klucel (hydroxypropylcellulose) (HPC)): 97 % of control
T/C [10]: 101 % of control

CCN(CC)CCN(C)CC(=O)Nc1cccc(Cl)c1C
T/C [11]: 106 % of control
T/C [1]: 93 % of control
T/C (dose: 75.0 mg/kg/injection, schedule: Q01DX001 (ip), vehicle: saline): 101 % of control
T/C [2]: 98 % of control
T/C (dose: 150.0 mg/kg/injection, schedule: Q01DX001 (ip), vehicle: saline): 102 % of control
T/C (dose: 150.0 mg/kg/injection, schedule: Q01DX009 (ip), vehicle: saline): 100 % of control

N#C/C(=C1/N=C(N)NC1=O)c1ccc(Cl)cc1
T/C (dose: 25.0 mg/kg/injection, schedule: Q01DX001 (ip), vehicle: saline with Tween-80): 92 % of control
T/C (dose: 50.0 mg/kg/injection, schedule: Q01DX001 (ip), vehicle: saline with Tween-80): 89 % of control
T/C [12]: 94 % of control

CCOC(=O)c1nc(SC)n(Cc2ccccc2)c1C(=O)OCC
T/C (dose: 25.0 mg/kg/injection, schedule: Q04DX002 (ip), vehicle: saline with Tween-80): 94 % of control and 103 % of control
T/C [6]: 106 % of control and 91 % of control
T/C [12]: 95 % of control and 98 % of control
T/C (dose: 100.0 mg/kg/injection, schedule: Q04DX003 (ip), vehicle: saline with Tween-80): 99 % of control
T/C (dose: 200.0 mg/kg/injection, schedule: Q01DX001 (ip), vehicle: saline with Tween-80): 102 % of control and 91 % of control
T/C (dose: 200.0 mg/kg/injection, schedule: Q04DX003 (ip), vehicle: saline with Tween-80): 100 % of control
T/C (dose: 400.0 mg/kg/injection, schedule: Q01DX001 (ip), vehicle: saline with Tween-80): 95 % of control and 91 % of control
T/C [13]: 94 % of control and 101 % of control
T/C (dose: 400.0 mg/kg/injection, schedule: Q04DX003 (ip), vehicle: saline with Tween-80): 99 % of control

COc1ccc2nc3cc(Cl)ccc3c(NCCCNCCCl)c2c1
T/C (dose: 10.0 mg/kg/injection, schedule: Q04DX003 (ip), vehicle: Klucel (hydroxypropylcellulose) (HPC)): 115 % of control
T/C (dose: 20.0 mg/kg/injection, schedule: Q04DX003 (ip), vehicle: Klucel (hydroxypropylcellulose) (HPC)): 103 % of control
T/C (dose: 40.0 mg/kg/injection, schedule: Q04DX003 (ip), vehicle: Klucel (hydroxypropylcellulose) (HPC)): 105 % of control

CN(C)C1CCN(Cc2ccccc2)CC1
T/C [1]: 94 % of control
T/C [14]: 100 % of control
T/C [2]: 96 % of control
T/C [3]: 97 % of control
T/C [4]: 93 % of control
T/C [5]: 92 % of control

O=[N+]([O-])c1cc(S(=O)(=O)F)cc(Cl)c1O
T/C [8]: 97 % of control
T/C [9]: 89 % of control

CCCCNC(=S)NN=C(N)N
T/C [7]: 96 % of control
T/C (dose: 200.0 mg/kg/injection, schedule: Q04DX002 (ip), vehicle: saline with Tween-80): 100 % of control
T/C [13]: 92 % of control

CCN(CC)CC(O)c1ccccc1 (stereo unspecified)
T/C [11]: 100 % of control
T/C (dose: 25.0 mg/kg/injection, schedule: Q04DX003 (ip), vehicle: saline): 98 % of control
T/C [1]: 98 % of control
T/C [14]: 93 % of control
T/C [3]: 100 % of control

CC(=O)Nc1ccc(C(=O)O)c(O)c1
T/C [14]: 113 % of control
T/C [3]: 108 % of control
T/C [5]: 105 % of control

O=C(O)CCc1c[nH]c2ccc(N(CCCl)CCCl)cc12
T/C (dose: 0.7 mg/kg/injection, schedule: Q01DX Z (ip), vehicle: carboxymethylcellulose (CMC)): 114 % of control
T/C (dose: 1.5 mg/kg/injection, schedule: Q01DX Z (ip), vehicle: carboxymethylcellulose (CMC)): 116 % of control
T/C (dose: 1.87 mg/kg/injection, schedule: Q01DX001 (ip), vehicle: carboxymethylcellulose (CMC)): 121 % of control
T/C (dose: 3.75 mg/kg/injection, schedule: Q01DX001 (oral), vehicle: carboxymethylcellulose (CMC)): 119 % of control
T/C (dose: 7.5 mg/kg/injection, schedule: Q01DX001 (ip), vehicle: carboxymethylcellulose (CMC)): 173 % of control
T/C (dose: 15.0 mg/kg/injection, schedule: Q01DX001 (oral), vehicle: carboxymethylcellulose (CMC)): 103 % of control

O=c1[nH]c2c(N3CCOCC3)cccc2o1
T/C (dose: 25.0 mg/kg/injection, schedule: Q04DX002 (ip), vehicle: Klucel (hydroxypropylcellulose) (HPC)): 93 % of control
T/C (dose: 50.0 mg/kg/injection, schedule: Q04DX002 (ip), vehicle: Klucel (hydroxypropylcellulose) (HPC)): 97 % of control
T/C (dose: 100.0 mg/kg/injection, schedule: Q04DX002 (ip), vehicle: Klucel (hydroxypropylcellulose) (HPC)): 97 % of control

O=C(/C=C\c1ccccc1)NCCNC(=O)/C=C/c1ccccc1
T/C (dose: 100.0 mg/kg/injection, schedule: Q01DX001 (ip), vehicle: saline): 105 % of control
T/C (dose: 200.0 mg/kg/injection, schedule: Q01DX001 (ip), vehicle: saline): 94 % of control
T/C (dose: 400.0 mg/kg/injection, schedule: Q01DX001 (ip), vehicle: saline): 108 % of control

Oc1c(Cl)cc(C(c2cc(Cl)c(O)c(Cl)c2)C(c2cc(Cl)c(O)c(Cl)c2)c2cc(Cl)c(O)c(Cl)c2)cc1Cl
T/C [3]: 101 % of control
T/C [5]: 96 % of control
T/C (dose: 400.0 mg/kg/injection, schedule: Q04DX003 (ip), vehicle: saline): 103 % of control

CC(CC=C(CCC(C)CC(C)(C)C)CCC(C)CC(C)(C)C)CC(C)(C)C (stereo unspecified)
T/C (dose: 75.0 mg/kg/injection, schedule: Q01DX001 (ip), vehicle: saline with Tween-80): 99 % of control
T/C (dose: 150.0 mg/kg/injection, schedule: Q01DX001 (ip), vehicle: saline with Tween-80): 100 % of control
T/C (dose: 300.0 mg/kg/injection, schedule: Q01DX001 (ip), vehicle: saline with Tween-80): 97 % of control

CNC(=O)Nc1ccc(OC)cc1Cl
T/C [8]: 98 % of control and 87 % of control
T/C [9]: 98 % of control
T/C [10]: 95 % of control and 90 % of control

CCOC(CNC(=O)c1ccc(S(=O)(=O)F)cc1)OCC
T/C (dose: 100.0 mg/kg/injection, schedule: Q04DX003 (ip), vehicle: alcohol): 107 % of control
T/C (dose: 200.0 mg/kg/injection, schedule: Q04DX003 (ip), vehicle: alcohol): 101 % of control
T/C (dose: 400.0 mg/kg/injection, schedule: Q04DX003 (ip), vehicle: alcohol): 98 % of control
